Experimental findings from publication PMC11280343, “Rubus urticifolius Compounds with Antioxidant Activity, and Inhibition Potential against Tyrosinase, Melanin, Hyaluronidase, Elastase, and Collagenase” (Pharmaceuticals, 2024) are described below.

For one data set, the system named is Nrf2. Kind of data set: Nrf2 activation assay, WS1. Type of data set: cell-based. Conditions: Homo sapiens, read-out: Activation of Nrf2 production EC50. As to the method:
To determine the antioxidant response of the samples (at the same concentration as in the viability assay), Nrf2 activation assay was used, following the protocol carried out by Apaza Ticona et al.. Cells were cultured in 96-well plates (1 × 10^6 cells/well). […] Absorbance was measured at 540 nm using a microplate reader.

The test system of data set [1] is NF-κB. Kind of data set: NF-κB inhibition assay (LPS-stimulated), HMCB. Conditions: Homo sapiens, 72 h, read-out: NF-κB Inhibition at 72 h IC50 ± SEM. Type of data set: cell-based. Here is the method: (§1) To determine the anti-inflammatory activity of the samples (at the same concentration as in the viability assay), NF-κB inhibition assay was used, following the protocol carried out by Apaza Ticona et al.. Cells were cultured in 96-well plates (1 × 10^6 cells/well). […] Absorbance was measured at 450 nm using a microplate reader.

In data set [2] the test system is NF-κB. Kind of data set: NF-κB inhibition assay (LPS-stimulated), WS1. The class given is cell-based. Conditions: Homo sapiens, 72 h, read-out: NF-κB Inhibition at 72 h IC50 ± SEM. Here is the method:
as §1

The target in the next data set is T1, tyrosinase in HMCB cells (Homo sapiens, UniProt P14679).
T1 construct: endogenous in cells; host or cells: HMCB cells
T1 sequence (P14679 19-529): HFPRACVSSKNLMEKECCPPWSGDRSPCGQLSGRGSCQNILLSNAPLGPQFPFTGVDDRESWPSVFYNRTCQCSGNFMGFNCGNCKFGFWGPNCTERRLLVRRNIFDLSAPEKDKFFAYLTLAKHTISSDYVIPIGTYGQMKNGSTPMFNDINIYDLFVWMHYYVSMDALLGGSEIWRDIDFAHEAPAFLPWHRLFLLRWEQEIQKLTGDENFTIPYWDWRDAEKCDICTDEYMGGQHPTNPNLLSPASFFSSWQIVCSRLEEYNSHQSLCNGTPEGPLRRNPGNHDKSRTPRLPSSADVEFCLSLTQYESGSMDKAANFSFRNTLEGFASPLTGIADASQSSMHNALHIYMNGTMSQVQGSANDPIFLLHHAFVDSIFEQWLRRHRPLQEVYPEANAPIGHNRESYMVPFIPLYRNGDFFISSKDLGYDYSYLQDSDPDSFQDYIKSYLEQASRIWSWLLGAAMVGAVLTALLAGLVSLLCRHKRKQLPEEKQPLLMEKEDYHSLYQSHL
Description: Cellular tyrosinase assay (L-DOPA as substrate). The class given is cell-based. Here is the method:
To determine the anti-tyrosinase activity of the samples (at the same concentration as in the viability assay), tyrosinase inhibition assay was used, following the protocol carried out by Apaza Ticona et al.. HMCB cells were cultured in 96-well plates (1 × 10^6 cells/well). […] Absorbance was measured at 475 nm using a microplate reader.

The next data set can be described thus: NR viability assay, WS1. The class given is cell-based, Homo sapiens. Conditions: human. Here is the method: (§2) The HEK001 (Homo sapiens cutaneous keratinocyte, CCL-2404), WS1 (Homo sapiens cutaneous fibroblast, CRL-1502), HMCB (Homo sapiens cutaneous melanoma, CRL-9607), and THP-1 (Homo sapiens peripheral blood monocyte, TIB-202) cell lines used in this study were obtained from the American Type Culture Collection (ATCC, Manassas, VA, USA). Cultivated in a Roswell Park Memorial Institute (RPMI) 1640 medium (RPMI 1640 Merck, Cat. No. R7755, New York, NY, USA) supplemented with 2 mM L-glutamine (≥99% Merck, Cat. No. 56-85-9), 10% fetal bovine serum (FBS Merck, Cat. No. TMS-016, St. Louis, MO, USA), and 10,000 units of penicillin and 10 mg streptomycin/mL (Merck, Cat. No. P4333, St. Louis, MO, USA) in culture flasks, the cells were maintained in an incubator under normoxic conditions (20–21% O2) and a humidified atmosphere (5% CO2 at 37 °C).
(§3) Mother solutions of samples (extracts, fractions, and compounds) were prepared at a concentration of […] using dimethyl sulfoxide (DMSO ≥ 99.9% Merck, Cat. No. 67-68-5, St. Louis, MO, USA) as the solvent. From these mother solutions, dilutions were prepared at concentrations ranging from 100 to 0.20 μg/mL or μM in culture medium containing 0.5% DMSO. Additionally, a negative control group consisting solely of culture medium with 0.5% DMSO was included to assess its potential cytotoxic effect on the cells.
(§4) Cell viability was evaluated using a colorimetric assay in 96-well plates, employing 3-amino-7-dimethylamino-2-methylphenazine hydrochloride salt reagent (NR, Merck, Cat. No. 553-24-2, St. Louis, MO, USA).
(§5) HEK001, WS1, HMCB, and THP-1 cell lines were cultured in 96-well plates at 37 °C with 5% CO2 until > 90% confluency was achieved (1 × 10^6 cells/well). Subsequently, the cultures were treated with sample dilutions (100–0.20 μg/mL or μM) for 72 h at 37 °C with 5% CO2 in phenol red-free RPMI. The supernatant was then discarded and the cells were washed with phosphate-buffered saline (PBS) before being incubated with […] NR (50 μg/mL; 173 μM) for 3 h at 37 °C with 5% CO2. NR labelling was performed after DMSO treatment. After incubation, the labelled sample dilutions were rapidly washed with a fixative solution composed of 1% calcium chloride (CaCl2 Merck, Cat. No. 10043-52-4, St. Louis, MO, USA) and 0.5% formaldehyde solution (≥36.0% in H2O Merck, Cat. No. 50-00-0, St. Louis, MO, USA), then diluted with 100 μL of the NR extraction solution. Finally, the plates were read at 540 nm using a microplate reader (Anthos 2020, version 2.0.5, Biochrom Ltd., Cambridge, UK).

The next data set can be described thus: NR viability assay, HMCB. Conditions: human. Type of data set: cell-based, Homo sapiens. As to the method: as §2, §3, §4, §5
Data set [3] is described as follows: NR viability assay, HEK001. Type of data set: cell-based, Homo sapiens. Conditions: human. As to the method: as §2, §3, §4, §5
Data set [4] has as its target T2, elastase from porcine pancreas (Sus scrofa, UniProt P00772).
T2 construct: elastase from porcine pancreas (7.5 units/mL); from tissue; host or cells: porcine pancreas
Description: Elastase-inhibitory effect assay. The class given is biochemical. Conditions: for Elastase Inhibition (%): inhibition percentage 'at an IC50', concentration not otherwise stated. As to the method:
The elastase-inhibitory effect was evaluated, implementing the protocol adapted from Tu and Tawata.
A mixture containing N-succinyl-Ala-Ala-Ala-p-nitroanilide (AAAPVN, Merck, Cat. No. 52299-14-6, St. Louis, MO, USA) elastase substrate in 0.1232 M Tris-HCl buffer solution (pH 8) was prepared to achieve a concentration of 1.015 mM. This elastase substrate was combined with 10 μL of the test samples at the same concentrations used as in the viability assay in 96-well plates and pre-incubated at room temperature (25 ± 5 °C) for 10 min. Subsequently, the reaction was initiated by adding 10 μL of elastase from porcine pancreas (7.5 units/mL) in Tris buffer solution to the pre-incubated mixtures. Absorbance was then measured at 410 nm using a microplate reader.

Where [5] appears, read: HMCB cells, L-DOPA as substrate, 12 h, read-out: Tyrosinase inhibitory activity IC50.

The structures appear in SMILES notation. Like-named read-outs stand apart in the source and are kept apart here.

T2 sequence (P00772 27-266): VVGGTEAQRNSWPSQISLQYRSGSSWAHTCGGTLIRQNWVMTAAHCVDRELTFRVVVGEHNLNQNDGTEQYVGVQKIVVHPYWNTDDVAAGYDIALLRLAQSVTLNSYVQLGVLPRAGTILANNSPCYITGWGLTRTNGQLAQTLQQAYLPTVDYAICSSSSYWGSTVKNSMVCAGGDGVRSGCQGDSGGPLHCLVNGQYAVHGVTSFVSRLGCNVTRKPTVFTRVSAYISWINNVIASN

Consider `CNC(=O)c1ccccc1NC(=O)/C=C/c1ccc(OC)c(OC)c1` [Compound 1, (E)-2-(3-(3,4-dimethoxyphenyl)acrylamido)-N-methylbenzamide], for which the 50% effective concentration (EC50) in the data set on Nrf2 (WS1, 72 h) came out at 0.268 µM. Further, the 50% inhibitory concentration (IC50) in the data set on NF-κB [1] (LPS-stimulated) stood at 9.82 ± 0.65 µM; with NF-κB [2] (WS1, LPS-stimulated), 11 ± 0.67 µM; at tyrosinase in HMCB cells (setting [5]), 14.2 µM; in data set [4] (read-out: Anti-Elastase IC50) it was 80.1 ± 1.92 µM. Further, the half-maximal cytotoxic concentration (CC50) at 72 h in the data set “NR viability assay, WS1” (WS1 cells (cutaneous fibroblasts), WS1, NR assay, 72 h, read-out: Viability CC50) worked out at 73 µM; in “NR viability assay, HMCB” (HMCB cells (cutaneous melanoma), HMCB, NR assay, 72 h, read-out: Viability CC50), 69.8 µM; in data set [3] (HEK001 cells (cutaneous keratinocytes), HEK001, NR assay, 72 h, read-out: Viability CC50), 76.2 µM. In addition, the “Elastase Inhibition (%)” value in data set [4] was found to be 60.76 ± 1.44%.
`O=C(O)c1cc(O)c2ccccc2n1` [Compound 2, 4-hydroxyquinoline-2-carboxylic acid]: in the data set on Nrf2 (WS1, 72 h), the half-maximal effective concentration (EC50) amounted to 0.361 µM. The 50% inhibitory concentration (IC50) in the data set on NF-κB [1] (LPS-stimulated) stood at 30.7 ± 0.98 µM; with NF-κB [2] (WS1, LPS-stimulated), 32.7 ± 0.51 µM; on tyrosinase in HMCB cells (setting [5]), 33.8 µM; in data set [4] (read-out: Anti-Elastase IC50), 168 ± 3.09 µM. Further, the CC50 at 72 h came to 89.9 µM in “NR viability assay, WS1”; 87.7 µM in “NR viability assay, HMCB”; 95 µM in data set [3]. Also, the “Elastase Inhibition (%)” value in data set [4] is reported as 17.68 ± 1.46%.
Consider `N#C/C(=C\c1ccc(O)cc1)C(=O)O` [Compound 3, (E)-2-cyano-3-(4-hydroxyphenyl)acrylic acid], for which the 50% effective concentration (EC50) with Nrf2 (72 h) worked out at 0.983 µM. The 50% inhibitory concentration (IC50) was 51.42 ± 0.13 µM in the data set on NF-κB [1], 53.21 ± 0.23 µM with NF-κB [2], 51.5 µM against tyrosinase in HMCB cells and 192 ± 3.78 µM in data set [4]. Besides, the CC50 at 72 h in “NR viability assay, WS1” (WS1, NR assay, 72 h, read-out: Viability CC50) worked out at 107 µM; in “NR viability assay, HMCB” (HMCB, NR assay, 72 h, read-out: Viability CC50) it was 98.4 µM; in data set [3] (HEK001, NR assay, 72 h, read-out: Viability CC50) it was 130 µM. In addition, the “Elastase Inhibition (%)” value in data set [4] turned out to be 6.19 ± 1.44%.
